According to patent US12662403B2, “Photoswitchable guanidinium compounds for removal of oxyanions from liquid solutions” (UT-Battelle, LLC, priority 2021, dated 2026):

Experiments:
[1] = Photoirradiation, thermal relaxation and cycling monitored by 1H NMR in DMSO-d6; format: physicochemical; conditions: for time to reach thermal equilibrium: 10 mM, photoirradiated
Description: In a typical photoirradiation NMR experiment, 3 mL of a freshly made deuterated DMSO solution was placed in a quartz cuvette (1 cm×1 cm×4.5 cm), stirred, and irradiated with UV-visible light using an unfiltered super high-pressure mercury lamp with emissions in the long-wave UV region and in the visible region at the yellow, green, blue, and violet wavelengths (254-800 nm). From the irradiated solution, 500 μL aliquots were removed with a micropipette and transferred to NMR tubes. For studies including excess triflate, a stock solution (200 mM) of tetramethylammonium triflate in DMSO-d6 was added before irradiation to obtain the desired concentration. Experiments were carried out in the same fashion as above. All measurements were obtained on the irradiated solutions within 1 hour of irradiation. ^1H spectra were recorded on a Bruker AvanceIII-400 MHz NMR spectrometer equipped with a 5 mm PABBO probe. The residual solvent signal ((CD3)2SO δH=2.50 ppm) was considered as an internal reference to calibrate spectra and the temperature was held at 24° C. The chemical shifts used to monitor photoisomerization were the set of doublets at 8.67 and 8.80 ppm and triplets at 7.54 and 7.68 ppm for the E,E and Z,Z isomers, respectively. […] The sample underwent hydrolysis back to the aldehyde only under forcing conditions of heating the sample at 50° C. for 2 weeks in water, where the aldehyde proton at 9.86 ppm started to resolve.
Cycling studies were performed by irradiating a freshly prepared, 9.94 mM 2PyDIG·HOTf DMSO-d6 solution in an NMR tube at 24° C. After 6 hour, a ^1H NMR spectrum was collected to determine the photoisomerization value, and the sealed NMR tube was placed in a 50° C. oven. The sample was heated statically for 24 hour, at which point the solution was left to cool at room temperature for approximately 30 min, and a ^1H NMR spectrum was collected to determine the thermal relaxation value. This cycling process was repeated three more times.

[2] = Photoswitching in the absence or presence of sulfate (1H NMR, DMSO-d6); format: physicochemical
Description: Photoswitching in the presence of sulfate was performed in one of two methods. In the first method, 0.5 mol ratio (sulfate to 2PyDIG^+) tetramethylammonium sulfate was added to a freshly prepared 10 mM E,E-2PyDIG·HOTf in DMSO-d6 solution in a quartz cuvette. After the addition of sulfate, the solution was irradiated with a UV (Hg lamp) light for 2 hours while stirring. The solution was then heated statically for 36 hours, at which point the solution was left to cool at room temperature for approximately 30 minutes, and a ^1H NMR spectrum was collected. In the second method, a freshly prepared 10 mM E,E-2PyDIG·HOTf in DMSO-d6 solution was irradiated with UV (Hg lamp) light for 2 hours while stirring. Following this, tetramethylammonium sulfate was added in either 0.5 or 1.0 mol ratio (sulfate to 2PyDIG^+). The solution was then heated statically for 36 hours, at which point the solution was left to cool at room temperature for approximately 30 minutes, and a ^1H NMR spectrum was collected. ^1H NMR spectra were collected on 500 μL aliquots of the freshly prepared samples, samples after photoirradiation, and samples after thermal treatment at 50° C. for 36 hours.

[3] = Sulfate binding constants, average of the UV-vis and NMR titrations, and E,E − Z,Z comparison
Description: For absorption titration experiments, a freshly prepared stock solution of 1.5 mM E,E-2PyDIG·HOTf in DMSO-d6 was added to a 1 mm quartz cuvette, and a tetramethylammonium sulfate solution (3.6 mM in DMSO-d6) was added, and the solution was mixed. Absorption spectra were collected after each addition using a UV-Visible spectrophotometer at ca. 24° C. For the Z,Z photoisomer, a freshly prepared 1.5 mM 2PyDIG·HOTf sample was irradiated for 1 hour before titration experiments were prepared and carried out in the same manner as for the E,E isomer.
The binding constants from the three UV-Vis titrations were calculated using commercial software based on the changes in the 2PyDIG^+ absorption maximum value at 315 nm and 320 nm for the E,E and Z,Z photoisomers, respectively. Fitting was performed by assigning the 1:0 and 1:2 PyDIG:sulfate adducts as spectra from before addition of sulfate and after 3 molar equivalents of sulfate, respectively.
For ^1H NMR titrations, a freshly prepared stock solution of 1.5 mM 2PyDIG·HOTf in DMSO-d6 was added to twelve NMR tubes, and a tetramethylammonium sulfate solution (10 mM in DMSO-d6) was added in varying stoichiometric amounts. Clean DMSO-d6 was then added to achieve a final volume of 500 μL. Titrations were performed with both a micropipette and a micrometer syringe. For the Z,Z photoisomer, a freshly prepared 1.5 mM 2PyDIG·HOTf sample was irradiated for 1 hour before the six titration experiments were prepared and carried out in the same manner as for the E,E isomer. To ensure that the PyDIG concentration was not changing as a result of precipitation, dimethylsulfone was added as an internal standard to the 1:2 PyDIG:SO4 solution. It was determined that the concentration of PyDIG remained constant throughout the experiment.
The binding constants from the four ^1H NMR titrations were calculated using commercial software based on the changes in the guanidinium —N—H chemical shifts of the 2PyDIG protons. During fitting, only the monoprotonated 2PyDIG cation was considered, as the Bjerrum pair of 2PyDIG cation and triflate in DMSO was estimated to have a Kassociation value of 156 M−^1. Fitting was performed by locking the 1:0 and 1:2 PyDIG:sulfate adducts at known chemical shift values to reduce the number of adjustable parameters to refine. The corresponding speciation and residual plots for each trial made. Attempts to increase the experimental concentration of 2PyDIG·HOTf higher than 1 mM produced solids, which prevented NMR titrations at higher concentrations.

[4] = Control, no SO4 added, mol ratio 0
[5] = SO4 added after irradiation, mol ratio 0.5
[6] = SO4 added after irradiation, mol ratio 1.0

photoconversion to the Z,Z isomer ([1]; 1.5 mM (low concentration), UV irradiation, DMSO-d6, 24° C.): 95.6±0.4%
Z,Z isomer initially present ([1]; 1.5 mM, before UV irradiation, DMSO-d6): 5.5±0.5%
percent Z,Z isomer in cycling, after irradiation ([1]; 10 mM in DMSO, 6-hour irradiation): 69%
percent Z,Z isomer in cycling, after dark equilibration ([1]; 10 mM in DMSO, 24-hour dark equilibration): 25%
Z,Z isomer at PSS ([1]; 10 mM solution, UV irradiation): 67.7±4.4%
experimental free energy difference between E,E and Z,Z forms (Eq. 1) ([1]; in the presence of triflate): 0.5 kcal/mol
equilibrium constant of thermal relaxation back to E,E from Z,Z (Eq. 1) ([1]; independent of temperature): 2.38(8)
E,E isomer at common thermal equilibrium ([1]; photoirradiated and nonirradiated solutions, thermal relaxation): 70.5±0.9%
Relative Amount of E,E-2PyDIG+, before irradiation [2, 4]: 97.4 ± 0.6%
Relative Amount of E,E-2PyDIG+, thermal equilibrium [2, 4]: 70.5 ± 0.9%
Relative Amount of E,E-2PyDIG+, after irradiation ([2]; Control, no SO4 added, mol ratio 0, PSS): 32.3 ± 4.4%
Relative Amount of E,E-2PyDIG+, after irradiation [2, 5]: 33.2 ± 5.3%
Relative Amount of E,E-2PyDIG+, before irradiation [2, 5]: 95.1 ± 1.4%
Relative Amount of E,E-2PyDIG+, thermal equilibrium [2, 5]: 93.1 ± 3.3%
Relative Amount of E,E-2PyDIG+, after irradiation [2, 6]: 31.0 ± 4.7%
Relative Amount of E,E-2PyDIG+, before irradiation [2, 6]: 93.4 ± 2.9%
Relative Amount of E,E-2PyDIG+, thermal equilibrium [2, 6]: 91.6 ± 1.9%
Relative Amount of E,E-2PyDIG+, before irradiation ([2]; SO4 added before irradiation, mol ratio 0.5): 91.1 ± 1.2%
Relative Amount of E,E-2PyDIG+, thermal equilibrium ([2]; SO4 added before irradiation, mol ratio 0.5, 50° C., 36 hours): 91.2 ± 1.4 ^ %
Relative Amount of E,E-2PyDIG+, thermal equilibrium ([2]; SO4 added before irradiation, mol ratio 0.5, 50° C., 36 hours, listed as 2PyDIG·HOTf): 91.2±1.4%
Relative Amount of E,E-2PyDIG+, after irradiation ([2]; SO4 added before irradiation, mol ratio 0.5, 2 hours UV): 32.5 ± 3.8 ^ %
Relative Amount of E,E-2PyDIG+, after irradiation ([2]; SO4 added before irradiation, mol ratio 0.5, 2 hours UV, listed as 2PyDIG·HOTf): 32.5±3.8%
Relative Amount of E,E-2PyDIG+, before irradiation ([2]; SO4 added before irradiation, mol ratio 0.5, listed as 2PyDIG·HOTf): 92.8±1.4%
E,E isomer before sulfate addition, before irradiation ([2]; ca. 10 mM 2PyDIG·HOTf in DMSO-d6, before addition of 0.5 mol ratio sulfate): 93.1±1.2%
log b11, E,E − Z,Z Difference ([3]; Eq. 2, difference of log binding constants of the isomers): 5.40±0.45
log b21, E,E − Z,Z Difference ([3]; Eq. 3, difference of log binding constants of the isomers): 8.31 ± 0.56
log b21, E,E Avg Value ([3]; Eq. 3, precision-weighted average of UV-vis and NMR titrations, DMSO-d6, 24° C.): 11.39±0.55
log b12, E,E − Z,Z Difference ([3]; Eq. 4, difference of log binding constants of the isomers): 7.91 ± 0.76
log b12 of the 1:2 adduct ([3]; as printed in text with unit, average value of Table 2): 11.91±0.74 M^−1
log K12, addition of the second sulfate to the 1:1 adduct ([3]; stepwise constant, DMSO-d6): 4.7±1.5
SMILES: N=C(N/N=C/c1ccccn1)N/N=C/c1ccccn1.O=S(=O)(O)C(F)(F)F [E,E-2PyDIG, bis(2-((E)-pyridin-2-ylmethylene)hydrazineyl)methaniminium trifluoromethanesulfonate]
time required to reach thermal equilibrium ([1]; 1 mM solution, even at elevated temperatures): greater than 20 days
time to reach photoconversion to the Z,Z isomer ([1]; 1.5 mM, UV irradiation): less than 15 min
time to reach PSS ([1]; 10 mM solution, UV irradiation): more than 2 hours
time to reach thermal equilibrium ([1]; 24° C.): 4 days
time to reach thermal equilibrium ([1]; 50° C.): less than 24 h
time to thermally equilibrate, unirradiated E,E isomer ([1]; unirradiated, 24° C.): 14 days
